Literature values as cited in publication PMC5358987 (Drug Design, Development and Therapy, 2017).

Assays:
[1] = tested on: HRM2 hairless mice
[2] = tested on: tyrosinase

In the case of `O=C(O)[C@@H]1CSC(c2ccc(O)cc2O)N1` (mixture of isomers) [MHY384, (2RS,4R)-2-(2,4-dihydroxyphenyl)thiazolidine-4-carboxylic acid], the “Reduction of melanogenesis” value [1] is given as “effectively reduce melanogenesis” and the “Tyrosinase inhibition” value [2] is given as “potent competitive tyrosinase inhibitors”.
